{"source": "patent US20230355613A1", "about": "“METHODS FOR TREATING PANCREATIC DUCTAL ADENOCARCINOMA” (HEALTH RESEARCH, INC., priority 2022, published 2023)", "key": {"[1]": {"tested_on": "C7 CAF", "assay": "72-hour dose-response cell viability assay (CellTiter-Glo)", "format": "cell-based", "conditions": "Fibroblast, C7 CAF human cancer associated fibroblasts", "excerpt": "(§1) PDAC cells are sensitive to chemical inhibition of CPSF3. CPSF3 was recently identified as the target for the small molecule JTE-607. JTE-607 is a prodrug that, when metabolized by the ester hydrolyzing enzyme carboxylesterase 1 (CES1), binds to CPSF3 and inhibits its catalytic activity, impairing the processing of newly synthesized mRNAs. As genetic depletion of CPSF3 attenuated PDAC cell proliferation (FIG. 1), it 2as hypothesized that pharmacologic inhibition of CPSF3 with JTE-607 could represent a novel therapeutic approach in PDAC. The sensitivity of multiple human pancreatic cell lines, both non-transformed and PDAC, to JTE-607 in a 72-hour dose-response cell viability assay was examined. […] To examine if sensitivity to CPSF3 inhibition was associated with proliferation rate, the relationship between cell line doubling time and JTE-607 sensitivity was assessed. […] Next, the effect of JTE-607 on cell proliferation by treating cells with increasing concentrations of JTE-607 and assessing cell viability in a time-dependent fashion (FIGS. 2C-2E) was determined. […] Finally, the effect of JTE-607 on colony formation in PDAC cell lines was tested. […] Therefore, JTE-607 selectively attenuates proliferation of PDAC cells over non-transformed pancreatic cells.\n(§2) JTE-607 studies. For dose-response measurements, cells were seeded at a density of 1000 cells per well in a 96-well white plate. The next day, JTE-607 was titrated over a range of concentrations using the Tecan D300e Digital Dispenser and cell viability was measured 72 hours post drug titration using a CellTiter-Glo Luminescent Cell Viability Assay Kit (Promega). For cell proliferation experiments, cells were seeded at a density of 250 cells per well in a 96-well white plate. DMSO control or JTE-607 was dispensed at varying concentrations and proliferation was measured using CellTiter-Glo Assay at days 0, 2, 4 and 6. For clonogenicity experiments, cells were seeded at a concentration of 500 cells per well and treated with different concentrations of JTE-607. Cells were allowed to grow over a period of 11-14 days after which they were fixed in 10% formalin, stained with 0.2% Crystal Violet and images were obtained for analysis. Colony area was measured using ImageJ software. Data were normalized to DMSO control data points."}, "[2]": {"tested_on": "HPDE cells", "assay": "72-hour dose-response cell viability assay (CellTiter-Glo)", "format": "cell-based", "conditions": "Homo sapiens, HPDE non-transformed pancreatic epithelial cells", "excerpt": "as §1, §2"}, "[3]": {"tested_on": "HPNE cells", "assay": "72-hour dose-response cell viability assay (CellTiter-Glo)", "format": "cell-based", "conditions": "Homo sapiens, HPNE non-transformed pancreatic epithelial cells", "excerpt": "as §1, §2"}, "[4]": {"tested_on": "Panc1 cells", "assay": "72-hour dose-response cell viability assay (CellTiter-Glo)", "format": "cell-based", "conditions": "Homo sapiens, PANC-1, Panc1 PDAC cells", "excerpt": "as §1, §2"}, "[5]": {"tested_on": "PancPat CAFs", "assay": "72-hour dose-response cell viability assay (CellTiter-Glo)", "format": "cell-based", "conditions": "Fibroblast, PancPat CAFs human cancer associated fibroblasts", "excerpt": "as §1, §2"}, "[6]": {"tested_on": "HPNE cells", "assay": "Histone transcriptional read-through by RT-qPCR", "format": "cell-based, human", "excerpt": "(§3) JTE-607 induces RD-histone read-through preferentially in PDAC cells. […] It was sought to validate this transcriptional read-through phenomena experimentally by RT-qPCR. Two RD- and two RI-histones that show differences beyond their 3′ end boundaries were picked for experimental validation (FIGS. 13A and 13B). PCR primers were designed to amplify different regions within and beyond the boundaries of the 3′-UTR (FIG. 13C). […] However, the effect of JTE-607 on transcriptional read-through in HPNE cells was minimal (FIG. 5A). […] Because stable long-term knockdown can force cells to adapt, it was asked whether short-term knockdown of CPSF3 can recapitulate JTE-607 effect on transcriptional read-through. […] Improperly processed histone mRNAs fail to be exported into the cytoplasm for translation, leading to decreased protein levels. […] Next, it was determined whether histone dysregulation might be transcriptionally mediated by dysregulation of transcription factors at the levels of APA or gene expression. MotifMap, an integrative genome-wide map of regulatory motif sites, was used to find putative transcription factors regulating expression of RD histones. 51 transcription factors that have strong binding sites (1000 bp upstream of transcription start site; FDR<0.05) within RD histone promoters (Table S3 (attached as a Large Table)) were found. However, these histone transcription factors are neither APA altered nor differentially expressed upon JTE-607 treatment (FIGS. 13G and 13H). Taken together, these findings indicate that JTE-607 decreases RD histone expression by promoting transcriptional read-through.\n(§4) RNA isolation and quantitative PCR. Cells were lysed with TRIzol reagent. RNA was isolated using Direct-zol RNA Miniprep. cDNA was synthesized using iScript cDNA Synthesis Kit. qPCR was conducted with SYBR Green PCR primers mixed with iTaq Universal SYBR Green Supermix and run on CFX connect systems (Bio-Rad). Data were analyzed in Microsoft Excel and graphed using GraphPad Prism (v 9.3.0)."}, "[7]": {"tested_on": "Panc1 cells", "assay": "Histone transcriptional read-through by RT-qPCR", "format": "cell-based, human", "excerpt": "as §3, §4"}, "[8]": {"tested_on": "Panc1 cells", "assay": "Western blot of histone protein levels", "format": "cell-based, human", "conditions": "dose- and time-dependent"}, "[9]": {"tested_on": "HPNE cells", "assay": "Micrococcal Nuclease (MNase) assay of chromatin condensation", "format": "cell-based, human", "conditions": "compared with DMSO-treated cells", "description": "(§5) Therefore, a Micrococcal Nuclease (MNase) assay was performed to assess relative chromatin condensation. In this assay, protein-free DNA is digested by MNase, producing DNA fragmentation patterns that are indicators of whether chromatin is in a condensed or relaxed state. […] To assess chromatin destabilization in a living cell, the HeLa-TI cell line model that has a silenced GFP reporter within a heterochromatic region of the genome was utilized. […] Therefore, GFP expression in HeLa-TI cells was monitored upon JTE-607 treatment by both fluorescence microscopy and flow cytometry.\n(§6) Micrococcal digestion. Micrococcal Nuclease (MNase) was performed as previously described. Briefly, cells were trypsinized, washed with 1×RSB buffer (10 mM Tris HCL, pH 7.6; 15 mM NaCl; 1.5 mM MgCl2) and pelleted at 1000 rpm for 4 minutes at room temperature. Cell pellets were resuspended in 1×RSB buffer with 1% TritonX-100, homogenized with a loose pestle (5 strokes) and centrifuged for 5 minutes at 2000 rpm at 4° C. Pellets were washed two times with 1 ml of buffer A (10 mM Tris HCL, pH 7.6; 15 mM NaCl; 60 mM KCl; 0.34 M Sucrose; 0.1% B-mercaptoethanol; 0.15 mM Spermine; 0.5 mM Spermidine; 0.25 mM PMSF) and nuclei were pelleted at 160 g for 10 minutes at 4° C. Nuclei were resuspended in 1.5 mL of buffer A supplemented with 1 mM of CaCl2). Nuclear suspensions (500 μL) were digested with 200 U/mL Micrococcal nuclease at 37° C. at different time points."}, "[10]": {"tested_on": "Panc1 cells", "assay": "Micrococcal Nuclease (MNase) assay of chromatin condensation", "format": "cell-based, human", "description": "as §5, §6"}, "[11]": {"conditions": "early or late time points (2 h, 24 h)"}}}
{"compound": "CCOC(=O)[C@H](Cc1ccccc1)NC(=O)c1cc(Cl)c(OCCN2CCN(C)CC2)c(Cl)c1O", "note": "[JTE-607]", "values": [{"measurement": "IC50", "setting": "[1]", "value": 70, "unit": "µM"}, {"measurement": "IC50", "setting": "[2]", "value": 60.1, "unit": "µM"}, {"measurement": "IC50", "setting": "[3]", "value": 130, "unit": "µM"}, {"measurement": "IC50", "setting": "[4]", "value": 2.16, "unit": "µM"}, {"measurement": "IC50", "setting": "[5]", "value": 114, "unit": "µM"}, {"measurement": "transcriptional read-through of RD histones", "setting": "[6]; 24 h treatment", "value": "minimal"}, {"measurement": "transcriptional read-through of RI histones", "setting": "[6]; [11]", "value": "did not induce transcriptional read-through"}, {"measurement": "transcriptional read-through of RD histones", "setting": "[7]; 24 h treatment, normalized to DMSO", "value": "up to −20 fold change"}, {"measurement": "transcriptional read-through of RI histones", "setting": "[7]; [11]", "value": "did not induce transcriptional read-through"}, {"measurement": "H3 and H2B protein levels", "setting": "[8]", "value": "reduced both H3 and H2B protein levels"}, {"measurement": "chromatin digestion by MNase", "setting": "[9]", "value": "no chromatin digestion"}, {"measurement": "mononucleosomes released by MNase digestion", "setting": "[10]; after 30 minutes of incubation", "value": "~4×10^3 normalized FU"}, {"measurement": "chromatin digestion by MNase", "setting": "[10]; compared with DMSO-treated cells", "value": "rapid and complete chromatin digestion"}]}
